The source of these data is US4051259A, “Phenoxyacetic acid amide” (Les Laboratoires Bruneau & Cie, priority 1975, dated 1977).

As a reminder, the LD50 is the dose at which mortality reaches 50%. As a reminder, the ED50 is the dose that gives a 50% effect, or the effect in half of the subjects.

A short description of data set [1]: toxicity (LD50) by the method of Karber and Behrens. The conditions noted are these: mouse, in vivo; mice, po. It counts as in vivo, mice. The text has this:
(§1) The toxicity (LD50) has been determined in the mice by the method of Karber and Behrens (Arch. Expl. Pathol. Pharmacol., 1931, 162, 48) and the anorexigenic activity (ED50) in the rat by the method of LeDouarec (J. Pharmacol. Paris 1970, 1, 419-22).

Data set [2] concerns rat. Description: anorexigenic activity (ED50) by the method of LeDouarec. It counts as in vivo. The conditions noted are these: for ED50: rat, po, read-out: ED50 po (anorexia); for anorexigenic activity (in words): comparison of results within the table.
Text: as §1

The subject of data set [3] is mice. Description: toxicity (LD50) by the method of Karber and Behrens. The format is in vivo. The conditions noted are these: for toxicity (in words): comparison of results within the table.
Text: as §1

As to `CCNc1ccc(OCC(=O)NC(C)Cc2cccc(C(F)(F)F)c2)cc1` (stereo not drawn) [LB 359], in data set [1], the LD50 is 1600 mg/kg. In addition, the ED50 in data set [2] amounted to 15 mg/kg.

For the compound `CC(C)CNc1ccc(OCC(=O)NC(C)Cc2cccc(C(F)(F)F)c2)cc1` (stereo not drawn) [LB 369], in data set [1], the LD50 was above 2000 mg/kg. Also, in data set [2], the ED50 was found to be 25 mg/kg.

`CCCNc1ccc(OCC(=O)NC(C)Cc2cccc(C(F)(F)F)c2)cc1` (stereo not drawn) [LB 368] registered an LD50 in data set [1] above 1600 mg/kg. For the same compound, the ED50 in data set [2] came to 20 mg/kg.

In data set [1], `CNc1ccc(OCC(=O)NC(C)Cc2cccc(C(F)(F)F)c2)cc1` (stereo not drawn) [LB 367] registered an LD50 of 800 mg/kg. Besides, the ED50 in data set [2] was determined as 12 mg/kg.

`CCCCCCNc1ccc(OCC(=O)NC(C)Cc2cccc(C(F)(F)F)c2)cc1` (stereo not drawn) [LB 446] gave an LD50 in data set [1] above 4000 mg/kg. Moreover, the ED50 in data set [2] turned out to be 45 mg/kg.

`CCCCCNc1ccc(OCC(=O)NC(C)Cc2cccc(C(F)(F)F)c2)cc1` (stereo not drawn) [LB 411, 1-methyl-2-(m-trifluoromethylphenyl)-ethylamide of p-pentylaminophenoxyacetic acid] showed an LD50 in data set [1] of 4000 mg/kg. In data set [3] (at doses near the LD50), the “intensity of intoxication symptoms” value is listed as “relatively weak”. The intoxication symptoms result in data set [3] (at doses near the LD50, first hour, then later) is “hypomotility and hypothermia during the first hour than tremor and convulsions”. The “toxicity (in words)” value is reported as “very low” in data set [3] and “low toxicity” in data set [3] (listed as n-pentyl derivative). Also, the “doses at which intoxication symptoms appear” value in data set [3] (doses relative to LD50) was “only at doses near of the LD50”. Besides, the “anorexigenic activity (in words)” value in data set [2] was “particularly high”; in data set [2] (listed as n-pentyl derivative), “outstanding anorexia-inducing properties”. Further, the ED50 in data set [2] is 10 mg/kg.

As to `CCCCNc1ccc(OCC(=O)NC(C)Cc2cccc(C(F)(F)F)c2)cc1` (stereo not drawn) [LB 448], in data set [1], the LD50 was above 2000 mg/kg. Besides, the ED50 in data set [2] stood at 20 mg/kg.
